Results from ChEMBL document CHEMBL5137050, “Hematopoietic Progenitor Kinase 1 in Tumor Immunology: A Medicinal Chemistry Perspective” (J Med Chem, 2022).

Experiments:
[1] = target: T1, Mitogen-activated protein kinase kinase kinase kinase 1 (Homo sapiens, UniProt Q92918); assay: Inhibition of HPK1 (unknown origin) assessed as inhibition of SLP76 phosphorylation by HTRF assay
Target sequence in this assay (Q92918 whole entry): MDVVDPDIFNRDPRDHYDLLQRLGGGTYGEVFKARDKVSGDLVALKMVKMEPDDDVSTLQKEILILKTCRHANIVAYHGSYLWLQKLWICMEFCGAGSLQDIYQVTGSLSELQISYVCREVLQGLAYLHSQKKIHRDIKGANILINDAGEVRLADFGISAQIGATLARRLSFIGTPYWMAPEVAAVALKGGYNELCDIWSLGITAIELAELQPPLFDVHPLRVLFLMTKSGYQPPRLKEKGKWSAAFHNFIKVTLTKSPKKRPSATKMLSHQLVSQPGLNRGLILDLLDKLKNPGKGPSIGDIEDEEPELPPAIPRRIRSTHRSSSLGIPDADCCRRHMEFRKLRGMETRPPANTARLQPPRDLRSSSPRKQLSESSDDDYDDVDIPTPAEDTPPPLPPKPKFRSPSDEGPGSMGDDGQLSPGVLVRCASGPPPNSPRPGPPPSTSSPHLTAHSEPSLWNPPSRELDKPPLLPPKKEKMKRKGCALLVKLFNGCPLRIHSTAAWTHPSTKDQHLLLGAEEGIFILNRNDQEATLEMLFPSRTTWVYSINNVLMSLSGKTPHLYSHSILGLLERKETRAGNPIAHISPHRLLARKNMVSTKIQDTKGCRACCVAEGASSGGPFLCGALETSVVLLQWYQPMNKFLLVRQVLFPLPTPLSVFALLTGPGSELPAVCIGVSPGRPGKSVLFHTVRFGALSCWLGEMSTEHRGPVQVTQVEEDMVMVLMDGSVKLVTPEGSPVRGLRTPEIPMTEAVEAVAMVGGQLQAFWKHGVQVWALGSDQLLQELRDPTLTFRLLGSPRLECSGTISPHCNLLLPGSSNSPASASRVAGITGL

[2] = target: T1, Mitogen-activated protein kinase kinase kinase kinase 1; assay: Inhibition of HPK1 (unknown origin) by FRET assay
Target sequence in this assay (Q92918 whole entry): as above

[3] = target: T1, Mitogen-activated protein kinase kinase kinase kinase 1; assay: Inhibition of HPK1 (unknown origin) in presence of ATP
Target sequence in this assay (Q92918 whole entry): as above

[4] = target: T1, Mitogen-activated protein kinase kinase kinase kinase 1; assay: Inhibition of HPK1 (unknown origin) by TR-FRET assay
Target sequence in this assay (Q92918 whole entry): as above

[5] = target: T1, Mitogen-activated protein kinase kinase kinase kinase 1; assay: Inhibition of N-terminal DYKDDDDK-tagged human HPK1 (1 to 346 residues) expressed in baculovirus expression system using SLP76 as substrate incubated for 1 hr in presence of ATP by TR-FRET assay
Target sequence in this assay (Q92918 whole entry): as above

[6] = target: T1, Mitogen-activated protein kinase kinase kinase kinase 1; assay: Inhibition of HPK1 in human PBMC assessed as inhibition of SLP76 phosphorylation incubated for 1 hr by ELISA; type: cell-based
Target sequence in this assay (Q92918 whole entry): as above

[7] = target: T1, Mitogen-activated protein kinase kinase kinase kinase 1; assay: Inhibition of HPK1 (unknown origin) in presence of ATP by ADP-Glo kinase assay
Interleukin-2 = Interleukin-2 (Homo sapiens, UniProt P60568); assay: Inhibition of IL-2 (unknown origin)
Chain of Interleukin-2 (P60568 whole entry): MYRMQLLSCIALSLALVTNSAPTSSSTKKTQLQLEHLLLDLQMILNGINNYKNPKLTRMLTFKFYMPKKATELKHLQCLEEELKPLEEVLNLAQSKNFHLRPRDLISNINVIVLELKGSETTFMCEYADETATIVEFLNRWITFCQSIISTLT

[8] = target: T1, Mitogen-activated protein kinase kinase kinase kinase 1; assay: Inhibition of HPK1 (unknown origin) by ELISA
[9] = target: T2, Receptor-type tyrosine-protein kinase FLT3 (Homo sapiens, UniProt P36888); assay: Inhibition of FLT3 (unknown origin) by FRET assay
T2 sequence (P36888 whole entry): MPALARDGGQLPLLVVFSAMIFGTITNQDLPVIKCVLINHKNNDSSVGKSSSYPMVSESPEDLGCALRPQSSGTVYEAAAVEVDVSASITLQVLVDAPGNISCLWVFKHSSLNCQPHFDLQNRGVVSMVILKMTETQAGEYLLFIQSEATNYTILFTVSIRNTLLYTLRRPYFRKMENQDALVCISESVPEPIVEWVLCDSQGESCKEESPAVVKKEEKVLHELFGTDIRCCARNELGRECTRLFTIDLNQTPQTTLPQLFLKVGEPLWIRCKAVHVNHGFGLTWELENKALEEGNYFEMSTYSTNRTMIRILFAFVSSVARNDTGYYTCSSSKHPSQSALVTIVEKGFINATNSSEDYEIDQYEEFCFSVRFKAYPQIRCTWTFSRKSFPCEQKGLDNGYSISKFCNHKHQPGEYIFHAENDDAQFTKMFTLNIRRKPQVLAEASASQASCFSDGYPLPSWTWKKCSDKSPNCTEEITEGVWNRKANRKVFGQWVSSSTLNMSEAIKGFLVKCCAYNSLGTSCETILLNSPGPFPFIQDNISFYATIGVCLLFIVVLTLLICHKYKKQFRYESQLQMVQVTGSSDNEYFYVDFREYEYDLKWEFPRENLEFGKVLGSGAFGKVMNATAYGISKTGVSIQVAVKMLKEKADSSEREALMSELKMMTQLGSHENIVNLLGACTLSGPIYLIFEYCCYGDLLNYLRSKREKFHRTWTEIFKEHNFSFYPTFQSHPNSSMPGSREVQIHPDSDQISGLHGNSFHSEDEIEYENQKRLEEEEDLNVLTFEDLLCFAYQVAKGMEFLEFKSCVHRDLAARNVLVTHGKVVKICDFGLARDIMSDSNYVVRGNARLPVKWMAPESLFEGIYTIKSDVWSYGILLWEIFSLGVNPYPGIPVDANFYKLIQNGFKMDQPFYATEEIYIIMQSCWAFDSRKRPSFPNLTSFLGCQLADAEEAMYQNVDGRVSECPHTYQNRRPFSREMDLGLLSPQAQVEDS

[10] = target: Tyrosine-protein kinase Lck (Homo sapiens, UniProt P06239); assay: Inhibition of LCK (unknown origin)
Chain of Tyrosine-protein kinase Lck (P06239 whole entry): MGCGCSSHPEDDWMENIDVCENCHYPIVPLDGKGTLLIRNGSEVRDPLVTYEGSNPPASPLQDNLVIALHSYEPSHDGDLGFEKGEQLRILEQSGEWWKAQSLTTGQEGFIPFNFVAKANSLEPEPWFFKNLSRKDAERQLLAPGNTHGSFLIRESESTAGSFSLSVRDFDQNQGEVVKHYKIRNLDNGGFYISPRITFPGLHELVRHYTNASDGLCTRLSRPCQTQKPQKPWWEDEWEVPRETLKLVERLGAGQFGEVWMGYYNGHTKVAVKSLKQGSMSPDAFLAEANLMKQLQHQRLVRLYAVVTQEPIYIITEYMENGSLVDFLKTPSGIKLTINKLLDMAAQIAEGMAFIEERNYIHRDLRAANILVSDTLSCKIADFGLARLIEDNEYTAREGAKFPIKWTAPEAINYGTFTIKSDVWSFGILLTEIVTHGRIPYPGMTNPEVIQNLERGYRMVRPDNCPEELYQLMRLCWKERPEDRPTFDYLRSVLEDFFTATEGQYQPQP

[11] = target: T3, Protein cereblon/Mitogen-activated protein kinase kinase kinase kinase 1 (Homo sapiens) (UniProt Q92918+Q96SW2); assay: PROTAC activity at CRBN/HPK1 (unknown origin) assessed as maximum inhibition of SLP76 phosphorylation by cell based assay relative to control
T3 sequence (Q92918 whole entry, looked up): as the sequence (Q92918 whole entry) above
T3 sequence (Q96SW2 whole entry, looked up): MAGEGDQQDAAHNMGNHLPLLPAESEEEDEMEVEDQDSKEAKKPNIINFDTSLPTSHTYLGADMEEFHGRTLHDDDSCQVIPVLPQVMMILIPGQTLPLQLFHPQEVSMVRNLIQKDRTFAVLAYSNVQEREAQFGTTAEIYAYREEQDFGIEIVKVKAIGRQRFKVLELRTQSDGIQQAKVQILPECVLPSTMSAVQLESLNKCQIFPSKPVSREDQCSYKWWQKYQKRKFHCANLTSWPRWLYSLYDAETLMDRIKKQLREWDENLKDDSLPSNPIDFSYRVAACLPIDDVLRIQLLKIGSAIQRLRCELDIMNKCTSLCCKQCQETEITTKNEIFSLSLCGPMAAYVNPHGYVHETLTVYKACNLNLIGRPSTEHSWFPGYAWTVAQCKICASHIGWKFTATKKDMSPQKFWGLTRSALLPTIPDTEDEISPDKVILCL

[12] = target: T3, Protein cereblon/Mitogen-activated protein kinase kinase kinase kinase 1 (Homo sapiens); assay: PROTAC activity at CRBN/HPK1 (unknown origin) assessed as degradation of HPK1 at 10 nM incubated for 12 hrs by cell based assay relative to control
[13] = target: T3, Protein cereblon/Mitogen-activated protein kinase kinase kinase kinase 1 (Homo sapiens); assay: PROTAC activity at CRBN/HPK1 (unknown origin) assessed as maximum degradation of HPK1 by cell based assay relative to control
[14] = target: T3, Protein cereblon/Mitogen-activated protein kinase kinase kinase kinase 1 (Homo sapiens); assay: PROTAC activity at CRBN/HPK1 (unknown origin) assessed as degradation of HPK1 at 100 nM incubated for 12 hrs by cell based assay relative to control
[15] = target: T1, Mitogen-activated protein kinase kinase kinase kinase 1; assay: Inhibition of HPK1 (unknown origin) in presence of ATP by TR-FRET assay
[16] = target: T1, Mitogen-activated protein kinase kinase kinase kinase 1; assay: Inhibition of HPK1(unknown origin) assessed as inhibition of SLP76 phosphorylation by cell based assay
[17] = target: T1, Mitogen-activated protein kinase kinase kinase kinase 1; assay: Binding affinity to HPK1 (unknown origin) assessed as dissociation constant by SPR analysis
[18] = target: T1, Mitogen-activated protein kinase kinase kinase kinase 1; assay: Inhibition of HPK1 (1 to 346 residues) (unknown origin) assessed as inhibition constant by Lanthascreen binding assay
[19] = target: T1, Mitogen-activated protein kinase kinase kinase kinase 1; assay: Inhibition of HPK1 (unknown origin) by ADP-Glo kinase assay
[20] = Cytotoxicity against HEK293 cells assessed as cell growth inhibition; type: toxicity, cell-based; settings: human
[21] = target: T1, Mitogen-activated protein kinase kinase kinase kinase 1; assay: Inhibition of HPK1 (unknown origin) assessed as inhibition of SLP76 phosphorylation at 0.3 to 1 uM relative to control; settings: dose 0.3-1 µM
Target sequence in this assay (Q92918 whole entry, looked up): as the sequence (Q92918 whole entry) above

[22] = target: T1, Mitogen-activated protein kinase kinase kinase kinase 1; assay: Inhibition of full-length HPK1 (unknown origin) assessed as inhibition constant in presence of ATP by HTRF assay
[23] = target: T1, Mitogen-activated protein kinase kinase kinase kinase 1; assay: Inhibition of HPK1 (unknown origin) assessed as inhibition constant by Lanthascreen binding assay

SMILES: CC(C)n1cnnc1-c1cccc(N2Cc3c(cc(N4CCC[C@H]4C)nc3CN)C2=O)n1
- IC50 [1]: 22 nM

SMILES: C/C(Nc1ccc(N2CCOCC2)cn1)=C1/C(=O)Nc2cnc(-c3cnccc3C)cc21
- IC50 [2]: < 50 nM

SMILES: CNC(=O)c1ccccc1Nc1nc(Nc2cc3c(cc2OC)CCN(C)C3)ncc1Cl
- IC50 [3]: 5 nM

SMILES: CN(C)C(=O)c1ccc(-c2c[nH]c3ncc(-c4ccc5c(c4)CN([C@H]4CC[C@](C)(O)CC4)CC5)cc23)cc1
- IC50 [4]: 7.3 nM

SMILES: COc1cc2c(cc1Nc1ncc(Cl)c(Nc3ccccc3P(C)(C)=O)n1)CN(C)CC2
- IC50 [5]: 0.334 nM
- IC50 [6]: 100 nM
- IC50 [3]: < 5 nM

SMILES: COc1cc2c(cc1Nc1ncc(Cl)c(Nc3ccccc3P(C)(C)=O)n1)CN(C)CCC2
- IC50 [3]: 100 nM

SMILES: CN(C)C(=O)c1ccc(-c2c[nH]c3ncc(-c4ccc5c(c4)CNCC5)cc23)cc1
- IC50 [4]: 107 nM

SMILES: COc1ccc(-c2c[nH]c3ncc(C#N)c(Oc4c(F)cc(NC5=NCC(C)(CO)CO5)cc4F)c23)c(F)c1 (configuration not stated)
- IC50 [7]: ≤ 50 nM

SMILES: C[C@H]1CC(=O)c2ccc(Nc3cc4c([C@](C)(N)C5CC5)cnc(OC5CC5)c4cn3)cc2C12CC2
- EC50 (Interleukin-2): 9.4 nM
- IC50 [3]: 0.05 nM

SMILES: Cc1cc(-c2cnc3[nH]cc(-c4ccc(C(=O)N5CC(N(C)C)C5)cc4)c3c2)cc(C)c1N1CCN(C2CCN(C)CC2)CC1
- IC50 [4]: 4.8 nM

SMILES: CNCc1nc(C2(C)CC2)cc2c1CN(c1cccc(N3C(=O)OC[C@@H]3C)n1)C2=O
- IC50 [1]: 730 nM

SMILES: COc1cc2c(cc1Nc1ncc(Br)c(Nc3ccccc3P(C)(C)=O)n1)CN(C)CC2
- IC50 [3]: ≤ 5 nM

SMILES: COc1cc2c(cc1Nc1ncc(Cl)c(Nc3ccccc3S(=O)(=O)C(C)C)n1)CN(C)CC2
- IC50 [3]: ≤ 5 nM

SMILES: CN1CCN(c2ccc3[nH]c(-c4c(N)c5ccsc5[nH]c4=O)nc3c2)CC1
- IC50 [8]: ≤ 50 nM
- IC50 [9]: ≤ 500 nM
- IC50 [10]: 50 nM

SMILES: CC(C)(O)C#Cc1cccc(COc2cc(-c3cnc(C4CCN(C(=O)CCCCCCCCCOc5cccc6c5C(=O)N(C5CCC(=O)NC5=O)C6=O)CC4)s3)cnc2N)c1 (configuration not stated)
- Emax [11]: 81%
- Activity [12]: 15%
- Emax [13]: 62%
- Activity [14]: 75%

SMILES: COc1cc2c(cc1Nc1ncc(Cl)c(Nc3ccccc3P(C)(C)=O)n1)CN(C)C2
- IC50 [3]: 10 nM

SMILES: Cn1cc(Nc2ncc(C3=CCC[C@@H](NC(=O)c4ccccc4)C3)nc2C(N)=O)cn1
- IC50 [15]: 4 nM
- EC50 [16]: 149 nM
- Kd [17]: 2.2 nM

SMILES: COCCN(C)C(=O)c1ccc(-c2c[nH]c3ncc(-c4ccc(N5CCN(C)CC5)cc4)nc23)cc1
- IC50 [4]: 8.2 nM

SMILES: COc1cc2c(cc1Nc1ncc(C(F)(F)F)c(Nc3ccccc3P(C)(C)=O)n1)CN(C)CC2
- IC50 [3]: 5 nM

SMILES: COc1cccc(F)c1-n1cc2c(-c3ccc(N4CCN(C)CC4)cc3)n[nH]c2cc1=O
- Ki [18]: ≤ 100 nM

SMILES: COc1cccc(F)c1-c1ccc2[nH]nc(-c3ccc(N4CCN(C)CC4)cc3)c2n1
- Ki [18]: ≤ 100 nM

SMILES: COc1cccc(F)c1-c1cc2c(NCc3ccc(N4CCN(C)CC4)cc3)n[nH]c2cn1
- Ki [18]: 500 nM

SMILES: Cc1cc(CNCCO)cc(F)c1-c1cc2c(-c3cnn(C)c3)n[nH]c2cn1
- Ki [18]: ≤ 100 nM

SMILES: C[C@H]1COC(=O)N1c1cc(N)c2nnc(NC(=O)[C@@H]3C[C@H]3c3cnn(C)c3)cc2c1
- IC50 [19]: 1.9 nM

SMILES: Cc1cc(-c2cnc3[nH]cc(-c4ccc(C(=O)N(C)C[C@H](C)O)cc4)c3n2)cc2c1CCN(CCN1CCOCC1)C2
- IC50 [20]: 1420 nM
- IC50 [4]: 11 nM

SMILES: CN1CCN(c2ccc3nc(-c4c(N)c5ccsc5[nH]c4=O)[nH]c3c2)CC1
- inhibition [21]: > 75%

SMILES: Cc1cc(-c2cnc(N)c(OCc3ccnc(C#Cc4cccc(F)c4)c3)n2)cc2c1CCN(C)C2
- IC50 [15]: 2.8 nM

SMILES: COc1cccc(F)c1-c1ncc2[nH]nc(-c3ccc(N4CCN(C)CC4)cc3)c2n1
- Ki [18]: ≤ 100 nM

SMILES: CC(C)(O)C#Cc1cccc(COc2cc(-c3cnc(C4CCN(C(=O)CCOCCOCCOCCOCCOc5cccc6c5C(=O)N(C5CCC(=O)NC5=O)C6=O)CC4)s3)cnc2N)c1 (configuration not stated)
- Activity [12]: 72%
- Activity [14]: 68%

SMILES: Cc1c(N)cncc1-c1cc2cc(Nc3cc4n(n3)CC(=O)N(C(C)C)CC4)ncc2cc1F
- Ki [22]: 0.05 nM

SMILES: COc1ccc(-c2c[nH]c3ncnc(Oc4c(F)cc(NC5=NCC(C)(CO)CO5)cc4F)c23)c(F)c1 (configuration not stated)
- IC50 [7]: ≤ 50 nM

SMILES: Cc1cc(-c2cnc3[nH]cc(-c4ccc(C(O)C5CCN(C)C5)cc4)c3c2)ccc1N1CCN(C)CC1 (configuration not stated)
- IC50 [4]: 4.5 nM

SMILES: CCN(CC)CCNC(=O)c1c[nH]c(/C=C2\C(=O)Nc3ccc(-c4c(F)cccc4OC)cc32)c1
- IC50 [2]: < 50 nM

SMILES: CCc1c(C)[nH]c2nc(C(=O)N(C)C)c(N)cc12
- Ki [23]: 15 nM

SMILES: CCc1c(Cl)[nH]c2nc(C(=O)N(C)C)c(N)cc12
- Ki [23]: 0.9 nM

SMILES: COc1cccc(F)c1-c1cc2c(C(=O)Nc3ccc(N4CCN(C)CC4)cc3)n[nH]c2cn1
- Ki [18]: ≤ 100 nM

SMILES: Cc1ccncc1-c1cc2cc(NC(=O)C=C3CC(C#N)C3)ncc2c(N)n1 (configuration not stated)
- IC50 [19]: < 0.01 nM

SMILES: Cc1cc2cc(N)c(C(=O)N(C)C)nc2[nH]1
- Ki [23]: 1300 nM

SMILES: COc1cc2c(cc1Nc1ncc(Cl)c(N3CC(CO)c4ccccc43)n1)CN(C)CC2 (configuration not stated)
- IC50 [19]: < 100 nM

SMILES: Cc1c(CC#N)ccnc1-c1cc(N)cc(-c2cnc3c(c2Cl)[C@]2(CC[C@](C)(C#N)C2)CN3)c1
- Ki [23]: 0.9 nM

SMILES: Cc1c(CC#N)ccnc1-c1cccc(-c2cnc3c(c2Cl)C2(CC[C@@](C)(C(N)=O)C2)CN3)c1F (some centres not stated)
- Ki [23]: 0.39 nM

SMILES: CN1CCN(c2ccc3nc(-c4c(N)c5sccc5[nH]c4=O)[nH]c3c2)CC1
- IC50 [8]: 50 nM
- inhibition [21]: > 75%
- IC50 [9]: 50 nM
- IC50 [10]: 50 nM
